Read-outs that look alike come from different tables or passages of the source.
System: pediatric patients with advanced solid tumors
Details: for Leukopenia (treatment-related AE): laboratory values only
Experimental: This phase 1, multicenter, open-label study was conducted at a total of 8 study sites (3 study sites in the United States and 5 Innovative Therapies for Children with Cancer [ITCC] Consortium centers [2 in the United Kingdom and 3 in France]) between January 31, 2012, and the data cutoff, January 14, 2014 (ClinicalTrials.gov identifier NCT01431534; European Clinical Trials Database [EudraCT] number 2011-000729-55). An enteric-coated tablet formulation of ridaforolimus was orally administered for 5 consecutive days and not administered for 2 consecutive days per week in 28-day cycles until progression, unacceptable toxicity, or consent withdrawal. […] Dose escalation was conducted by using a modified toxicity probability intervals method that targeted a 30% DLT rate and started at 22 mg/m^2 (the equivalent of the adult RP2D [27], a 40-mg dose in adults with a BSA of 1.8 m^2). […] Dosing was adjusted based on BSA and rounded to the nearest 10-mg tablet. Patients were to be treated at sequentially rising dose levels until a preliminary MTD was identified.
Toxicity was graded according to the National Cancer Institute Common Terminology Criteria for Adverse Events, version 4.0 [42]. Safety data were reported for all patients who received at least 1 dose of the study drug. […] Once the RP2D of ridaforolimus was defined, an expansion cohort to be treated at the RP2D was planned to obtain additional safety, tolerability, and pharmacokinetic data.

Q: With `CO[C@H]1C[C@@H]2CC[C@@H](C)[C@@](O)(O2)C(=O)C(=O)N2CCCC[C@H]2C(=O)O[C@H]([C@H](C)C[C@@H]2CC[C@@H](OP(C)(C)=O)[C@H](OC)C2)CC(=O)[C@H](C)/C=C(\C)[C@@H](O)[C@@H](OC)C(=O)[C@H](C)C[C@H](C)/C=C/C=C/C=C/1C` [ridaforolimus] as the molecule, how does the “Increased alkaline phosphatase (treatment-related AE)” value (shortened to “Increased alkaline phosphatase”) (33 mg/m^2 n = 13, grades 3–4) read?
A: 0 n (%)

Q: What about the “Increased bilirubin (treatment-related AE)” value (from here on “Increased bilirubin”) (33 mg/m^2 n = 13, grades 3–4) of the same molecule?
A: 0 n (%)

Q: And the “Increased γ-glutamyltransferase (treatment-related AE)” value (from here on “Increased γ-glutamyltransferase”) (33 mg/m^2 n = 13, grades 3–4)?
A: 1 (8) n (%)

Q: What about the “Lymphopenia (treatment-related AE)” value (33 mg/m^2 n = 13, grades 3–4) of the same molecule?
A: 1 (8) n (%)

Q: And the “Nausea (treatment-related AE)” value (33 mg/m^2 n = 13, grades 3–4)?
A: 0 n (%)

Q: And the “Neutropenia (treatment-related AE)” value (33 mg/m^2 n = 13, grades 3–4)?
A: 1 (8) n (%)

Q: What about the “Oral herpes (treatment-related AE)” value (33 mg/m^2 n = 13, grades 3–4) of the same molecule?
A: 0 n (%)

Q: What about the “Patients with ≥1 treatment-related adverse event” value (33 mg/m^2 n = 13, grades 3–4) of the same molecule?
A: 5 (38) n (%)

Q: And the “Photophobia (treatment-related AE)” value (33 mg/m^2 n = 13, grades 3–4)?
A: 0 n (%)

Q: And the “Rash (treatment-related AE)” value (33 mg/m^2 n = 13, grades 3–4)?
A: 0 n (%)

Q: What about the “Stomatitis (treatment-related AE)” value (33 mg/m^2 n = 13, grades 3–4) of the same molecule?
A: 0 n (%)

Q: What about the “Thrombocytopenia (treatment-related AE)” value (33 mg/m^2 n = 13, grades 3–4) of the same molecule?
A: 1 (8) n (%)

Q: And the “Vomiting (treatment-related AE)” value (33 mg/m^2 n = 13, grades 3–4)?
A: 0 n (%)

Q: What about the “Leukopenia (treatment-related AE)” value (33 mg/m^2 n = 13, grades 3–4) of the same molecule?
A: 0 n (%)

Q: And the “Anemia (treatment-related AE)” value (Total N = 20, any grade)?
A: 8 (40) n (%)

Q: And the “Decreased appetite (treatment-related AE)” value (Total N = 20, any grade)?
A: 2 (10) n (%)

Q: And the “Decreased weight (treatment-related AE)” value (Total N = 20, any grade)?
A: 2 (10) n (%)

Q: What about the “Diarrhea (treatment-related AE)” value (Total N = 20, any grade) of the same molecule?
A: 2 (10) n (%)

Q: And the “Dry mouth (treatment-related AE)” value (Total N = 20, any grade)?
A: 2 (10) n (%)

Q: And the “Dysgeusia (treatment-related AE)” value (Total N = 20, any grade)?
A: 3 (15) n (%)

Q: And the “Epistaxis (treatment-related AE)” value (Total N = 20, any grade)?
A: 2 (10) n (%)

Q: What about the “Fatigue (treatment-related AE)” value (Total N = 20, any grade) of the same molecule?
A: 9 (45) n (%)

Q: And the “Headache (treatment-related AE)” value (Total N = 20, any grade)?
A: 3 (15) n (%)

Q: What about the “Hypercholesterolemia (treatment-related AE)” value (Total N = 20, any grade) of the same molecule?
A: 9 (45) n (%)

Q: And the “Hyperglycemia (treatment-related AE)” value (Total N = 20, any grade)?
A: 2 (10) n (%)

Q: And the “Hypertriglyceridemia (treatment-related AE)” value (Total N = 20, any grade)?
A: 10 (50) n (%)

Q: And the “Hypocalcemia (treatment-related AE)” value (Total N = 20, any grade)?
A: 2 (10) n (%)

Q: What about the “Hypokalemia (treatment-related AE)” value (Total N = 20, any grade) of the same molecule?
A: 2 (10) n (%)

Q: What about the “Hypophosphatemia (treatment-related AE)” value (Total N = 20, any grade) of the same molecule?
A: 5 (25) n (%)

Q: And the “Increased ALT (treatment-related AE)” value (Total N = 20, any grade)?
A: 10 (50) n (%)

Q: And the “Increased AST (treatment-related AE)” value (Total N = 20, any grade)?
A: 8 (40) n (%)

Q: And the “Increased alkaline phosphatase” value (Total N = 20, any grade)?
A: 2 (10) n (%)

Q: And the “Increased bilirubin” value (Total N = 20, any grade)?
A: 2 (10) n (%)

Q: What about the “Increased γ-glutamyltransferase” value (Total N = 20, any grade) of the same molecule?
A: 5 (25) n (%)

Q: And the “Lymphopenia (treatment-related AE)” value (Total N = 20, any grade)?
A: 2 (10) n (%)

Q: And the “Nausea (treatment-related AE)” value (Total N = 20, any grade)?
A: 6 (30) n (%)

Q: And the “Neutropenia (treatment-related AE)” value (Total N = 20, any grade)?
A: 6 (30) n (%)

Q: And the “Oral herpes (treatment-related AE)” value (Total N = 20, any grade)?
A: 2 (10) n (%)

Q: What about the “Patients with ≥1 treatment-related adverse event” value (Total N = 20, any grade) of the same molecule?
A: 19 (95) n (%)

Q: What about the “Photophobia (treatment-related AE)” value (Total N = 20, any grade) of the same molecule?
A: 3 (15) n (%)

Q: And the “Rash (treatment-related AE)” value (Total N = 20, any grade)?
A: 2 (10) n (%)

Q: What about the “Stomatitis (treatment-related AE)” value (Total N = 20, any grade) of the same molecule?
A: 15 (75) n (%)

Q: What about the “Thrombocytopenia (treatment-related AE)” value (Total N = 20, any grade) of the same molecule?
A: 13 (65) n (%)

Q: What about the “Vomiting (treatment-related AE)” value (Total N = 20, any grade) of the same molecule?
A: 3 (15) n (%)

Q: And the “Leukopenia (treatment-related AE)” value (Total N = 20, any grade)?
A: 7 (35) n (%)

Q: What about the “Anemia (treatment-related AE)” value (Total N = 20, grades 3–4) of the same molecule?
A: 0 n (%)

Q: What about the “Decreased appetite (treatment-related AE)” value (Total N = 20, grades 3–4) of the same molecule?
A: 0 n (%)

Q: And the “Decreased weight (treatment-related AE)” value (Total N = 20, grades 3–4)?
A: 0 n (%)

Q: What about the “Diarrhea (treatment-related AE)” value (Total N = 20, grades 3–4) of the same molecule?
A: 0 n (%)

Q: And the “Dry mouth (treatment-related AE)” value (Total N = 20, grades 3–4)?
A: 0 n (%)

Q: What about the “Dysgeusia (treatment-related AE)” value (Total N = 20, grades 3–4) of the same molecule?
A: 0 n (%)

Q: And the “Epistaxis (treatment-related AE)” value (Total N = 20, grades 3–4)?
A: 0 n (%)

Q: And the “Fatigue (treatment-related AE)” value (Total N = 20, grades 3–4)?
A: 0 n (%)

Q: And the “Headache (treatment-related AE)” value (Total N = 20, grades 3–4)?
A: 0 n (%)

Q: What about the “Hypercholesterolemia (treatment-related AE)” value (Total N = 20, grades 3–4) of the same molecule?
A: 1 (5) n (%)

Q: What about the “Hyperglycemia (treatment-related AE)” value (Total N = 20, grades 3–4) of the same molecule?
A: 0 n (%)

Q: What about the “Hypertriglyceridemia (treatment-related AE)” value (Total N = 20, grades 3–4) of the same molecule?
A: 1 (5) n (%)

Q: And the “Hypocalcemia (treatment-related AE)” value (Total N = 20, grades 3–4)?
A: 0 n (%)

Q: And the “Hypokalemia (treatment-related AE)” value (Total N = 20, grades 3–4)?
A: 0 n (%)

Q: What about the “Hypophosphatemia (treatment-related AE)” value (Total N = 20, grades 3–4) of the same molecule?
A: 1 (5) n (%)

Q: What about the “Increased ALT (treatment-related AE)” value (Total N = 20, grades 3–4) of the same molecule?
A: 5 (25) n (%)

Q: What about the “Increased AST (treatment-related AE)” value (Total N = 20, grades 3–4) of the same molecule?
A: 1 (5) n (%)

Q: And the “Increased alkaline phosphatase” value (Total N = 20, grades 3–4)?
A: 0 n (%)

Q: What about the “Increased bilirubin” value (Total N = 20, grades 3–4) of the same molecule?
A: 0 n (%)

Q: And the “Increased γ-glutamyltransferase” value (Total N = 20, grades 3–4)?
A: 1 (5) n (%)

Q: And the “Lymphopenia (treatment-related AE)” value (Total N = 20, grades 3–4)?
A: 1 (5) n (%)

Q: What about the “Nausea (treatment-related AE)” value (Total N = 20, grades 3–4) of the same molecule?
A: 0 n (%)

Q: And the “Neutropenia (treatment-related AE)” value (Total N = 20, grades 3–4)?
A: 1 (5) n (%)

Q: And the “Oral herpes (treatment-related AE)” value (Total N = 20, grades 3–4)?
A: 1 (5) n (%)

Q: What about the “Patients with ≥1 treatment-related adverse event” value (Total N = 20, grades 3–4) of the same molecule?
A: 9 (45) n (%)

Q: And the “Photophobia (treatment-related AE)” value (Total N = 20, grades 3–4)?
A: 0 n (%)

Q: And the “Rash (treatment-related AE)” value (Total N = 20, grades 3–4)?
A: 0 n (%)

Q: And the “Stomatitis (treatment-related AE)” value (Total N = 20, grades 3–4)?
A: 0 n (%)

Q: And the “Thrombocytopenia (treatment-related AE)” value (Total N = 20, grades 3–4)?
A: 2 (10) n (%)

Q: And the “Vomiting (treatment-related AE)” value (Total N = 20, grades 3–4)?
A: 0 n (%)

Q: And the “Leukopenia (treatment-related AE)” value (Total N = 20, grades 3–4)?
A: 0 n (%)

Q: What about the “Anemia, treatment-related” value (all patients, N = 20) of the same molecule?
A: 40%

Q: What about the “Fatigue, treatment-related” value (all patients, N = 20) of the same molecule?
A: 45%

Q: What about the “Hypercholesterolemia, treatment-related” value (all patients, N = 20) of the same molecule?
A: 45%

Q: What about the “Hypertriglyceridemia, treatment-related” value (all patients, N = 20) of the same molecule?
A: 50%

Q: What about the “Increased ALT, treatment-related” value (all patients, N = 20) of the same molecule?
A: 50%

Q: And the “Increased aspartate aminotransferase (AST), treatment-related” value (all patients, N = 20)?
A: 40%

Q: What about the “Leukopenia, treatment-related” value (all patients, N = 20) of the same molecule?
A: 35%

Q: What about the “Nausea, treatment-related” value (all patients, N = 20) of the same molecule?
A: 30%

Q: What about the “Neutropenia, treatment-related” value (all patients, N = 20) of the same molecule?
A: 30%

Q: What about the “Patients with at least 1 treatment-related adverse event” value (all patients, N = 20) of the same molecule?
A: 95%

Q: And the “Serious adverse events related to study treatment” value (all patients, N = 20)?
A: 15%

Q: What about the “Stomatitis, treatment-related” value (all patients, N = 20) of the same molecule?
A: 75%

Q: What about the “Thrombocytopenia, treatment-related” value (all patients, N = 20) of the same molecule?
A: 65%

Q: What about the “Treatment-related grade 3/4 increased ALT” value (all patients, N = 20) of the same molecule?
A: 25%

Q: And the “Treatment-related grade 3/4 thrombocytopenia” value (all patients, N = 20)?
A: 10%

Q: And the “Treatment-related grade 3/4 adverse events” value (all patients, N = 20 (9 patients))?
A: 45%

Q: And the Serious adverse events (all patients, N = 20 (12 patients), most disease related)?
A: 60%

Q: And the “Time to DLT onset, days” value (dose level 3, 33 mg/m^2, cycle 1)?
A: 22 (cycle 1) days

Q: What about the “Recommended phase 2 dose (RP2D) for oral ridaforolimus in children” value (once daily 5 days/week) of the same molecule?
A: 33 mg/m^2

Q: And the “Deaths / grade 5 adverse events related to ridaforolimus” value (three deaths during the study)?
A: No deaths were considered related to ridaforolimus

Reference: PMC5356695, “A phase 1 study of oral ridaforolimus in pediatric patients with advanced solid tumors” (Oncotarget, 2016)
